Target: T1, GPR84 (Homo sapiens, UniProt Q9NQS5)
T1 construct: expressed in transfected cells; membranes used
Test: GTPγS binding assay (GPR84)
Format: biochemical
Details: membranes from stable cell line over expressing GPR84; 3,3′ di indolylmethane at EC80
Protocol: 1.1. Cell Based Assay: GTp-γS Binding Assay.
The following assay can be used for determination of GPR84 activation.
The assay is performed in a 96 well plate where the following reagents are added. […] In a last step, 30 μL of a mixture consisting of membranes-GTPγS-SpA beads is added [mixture consists of 20 μg/well membranes derived from stable cell line over expressing GPR84 (membranes are pre-incubated with 0.1 μM GDP for 15 min at 4° C.), 0.1 nM [^35S]GTPγS (Perkin Elmer, NEG030) and 0.5 mg/well PVT-WGA SpA beads (Perkin Elmer, RPNQ0001)]. All components are diluted in assay buffer containing 20 mM HEPES pH 7.4; 5 mM MgCl2; 250 mM NaCl; 0.05% BSA; 75 ug/mL saponin. Reactions are incubated for 90 min at room temperature followed by centrifugation at 2000 rpm during 15 min. Plates are read on a Topcount reader (Perkin Elmer) immediately after centrifugation (readout time, 1 min/well).

T1 sequence (Q9NQS5 whole entry): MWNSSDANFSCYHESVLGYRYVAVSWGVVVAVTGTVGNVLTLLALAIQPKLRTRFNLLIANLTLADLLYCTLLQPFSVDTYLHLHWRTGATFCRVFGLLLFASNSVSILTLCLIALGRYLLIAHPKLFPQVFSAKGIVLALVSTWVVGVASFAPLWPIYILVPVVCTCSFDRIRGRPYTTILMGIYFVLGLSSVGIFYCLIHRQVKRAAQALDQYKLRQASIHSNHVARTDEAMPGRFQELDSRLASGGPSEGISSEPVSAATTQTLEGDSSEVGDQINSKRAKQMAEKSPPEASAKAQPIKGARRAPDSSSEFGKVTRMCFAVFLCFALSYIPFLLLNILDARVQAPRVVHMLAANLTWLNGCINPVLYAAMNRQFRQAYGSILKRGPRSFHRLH

SMILES	IC50 [nM]
Cc1cc(-c2ccc3c(c2)CCn2c-3cc(OCC3COCCO3)nc2=O)ccn1 (centres unmarked) [Compound 65, 2-([1,4]dioxan-2-ylmethoxy)-9-(2-methyl-pyridin-4-yl)-6,7-dihydro-pyrimido[6,1-a]isoquinolin-4-one]	501 to 1000
O=c1nc(OCC2COCCO2)cc2n1CCc1cc(C#CCCO)ccc1-2 (centres unmarked) [Compound 45, 2-([1,4]dioxan-2-ylmethoxy)-9-(4-hydroxy-but-1-ynyl)-6,7-dihydro-pyrimido[6,1-a]isoquinolin-4-one]	501 to 1000
N#Cc1cccc(-c2ccc3c(c2)CCn2c-3cc(OCC3COCCO3)nc2=O)c1 (centres unmarked) [Compound 5, 3-[2-([1,4]dioxan-2-ylmethoxy)-4-oxo-6,7-dihydro-4H-pyrimido[6,1-a]isoquinolin-9-yl]-benzonitrile]	501 to 1000
CCCCC(CC)CNc1ccc2c(c1)CCn1c-2cc(OC[C@@H]2COCCO2)nc1=O (stereo partly drawn) [Compound 128, 2-((S)-1-[1,4]dioxan-2-ylmethoxy)-9-(2-ethyl-hexylamino)-6,7-dihydro-pyrimido[6,1-a]isoquinolin-4-one]	101 to 500
O=c1nc(OC[C@H]2COCCO2)cc2n1CCc1cc(C#CC3(O)CCOCC3)ccc1-2 [Compound 167, 2-((R)-1-[1,4]Dioxan-2-ylmethoxy)-9-(4-hydroxy-tetrahydro-pyran-4-ylethynyl)-6,7-dihydro-pyrimido[6,1-a]isoquinolin-4-one]	501 to 1000
CC(C)(O)C#Cc1ccc2c(c1)CCn1c-2cc(OCC2COCCO2)nc1=O (centres unmarked) [Compound 55, 2-([1,4]dioxan-2-ylmethoxy)-9-(3-hydroxy-3-methyl-but-1-ynyl)-6,7-dihydro-pyrimido[6,6,1-a]isoquinolin-4-one]	> 1000
O=c1nc(OCC2COCCO2)cc2n1CCc1cc(C3=CCOCC3)ccc1-2 (centres unmarked) [Compound 58, 9-(3,6-dihydro-2H-pyran-4-yl)-2-([1,4]dioxan-2-ylmethoxy)-6,7-dihydro-pyrimido[6,1-a]isoquinolin-4-one]	101 to 500
CCC(O)CCc1ccc2c(c1)CCn1c-2cc(OC[C@@H]2COCCO2)nc1=O (stereo partly drawn) [Compound 157, 2-((S)-1-[1,4]dioxan-2-ylmethoxy)-9-(3-hydroxy-pentyl)-6,7-dihydro-pyrimido[6,1-a]isoquinolin-4-one]	101 to 500
O=c1nc(OC[C@@H]2COCCO2)cc2n1CCc1cc(CCCCO)ccc1-2 [Compound 151, 2-((S)-1-[1,4]dioxan-2-ylmethoxy)-9-(4-hydroxy-butyl)-6,7-dihydro-pyrimido[6,1-a]isoquinolin-4-one]	101 to 500
Cc1ccc(-c2ccc3c(c2)CCn2c-3cc(OCC3COCCO3)nc2=O)o1 (centres unmarked) [Compound 97, 2-([1,4]dioxan-2-ylmethoxy)-9-(5-methyl-furan-2-yl)-6,7-dihydro-pyrimido[6,1-a]isoquinolin-4-one]	101 to 500
O=c1nc(OC[C@@H]2COCCO2)cc2n1CCc1cc(COC3COC3)ccc1-2 [Compound 124, 2-((S)-1-[1,4]dioxan-2-ylmethoxy)-9-(oxetan-3-yloxymethyl)-6,7-dihydro-pyrimido[6,1-a]isoquinolin-4-one]	101 to 500
O=c1nc(OC[C@@H]2COCCO2)cc2n1CCc1cc(C#CCOCCF)ccc1-2 [Compound 135, 2-((S)-1-[1,4]dioxan-2-ylmethoxy)-9-[3-(2-fluoro-ethoxy)-prop-1-ynyl]-6,7-dihydro-pyrimido[6,1-a]isoquinolin-4-one]	101 to 500
O=c1nc(OCC2COCCO2)cc2n1CCc1cc(C#CCNCc3cccnc3)ccc1-2 (centres unmarked) [Compound 120, 2-([1,4]dioxan-2-ylmethoxy)-9-{3-[(pyridin-3-ylmethyl)-amino]-prop-1-ynyl}-6,7-dihydro-pyrimido[6,1-a]isoquinolin-4-one]	101 to 500

Continued, values first:

IC50 [nM]	SMILES
101 to 500	O=c1nc(OC[C@H]2COCCO2)cc2n1CCc1cc(COC3CCOCC3)ccc1-2 [Compound 119, 2-((R)-1-[1,4]dioxan-2-ylmethoxy)-9-(tetrahydro-pyran-4-yloxymethyl)-6,7-dihydro-pyrimido[6,1-a]isoquinolin-4-one]
101 to 500	CCC(O)(C#Cc1ccc2c(c1)CCn1c-2cc(OCC2COCCO2)nc1=O)CC (centres unmarked) [Compound 91, 2-([1,4]dioxan-2-ylmethoxy)-9-(3-ethyl-3-hydroxy-pent-1-ynyl)-6,7-dihydro-pyrimido[6,1-a]isoquinolin-4-one]
101 to 500	COC(C#Cc1ccc2c(c1)CCn1c-2cc(OCC2COCCO2)nc1=O)C(C)C (centres unmarked) [Compound 110, 2-([1,4]dioxan-2-ylmethoxy)-9-(3-methoxy-4-methyl-pent-1-ynyl)-6,7-dihydro-pyrimido[6,1-a]isoquinolin-4-one]
101 to 500	C=CCOc1ccc2c(c1)CCn1c-2cc(OC[C@@H]2COCCO2)nc1=O [Compound 118, 9-allyloxy-2-((S)-1-[1,4]dioxan-2-ylmethoxy)-6,7-dihydro-pyrimido[6,1-a]isoquinolin-4-one]
101 to 500	CC(C)(C)CCCOc1ccc2c(c1)CCn1c-2cc(OC[C@@H]2COCCO2)nc1=O [Compound 141, 9-(4,4-dimethyl-pentyloxy)-2-((S)-1-[1,4]dioxan-2-ylmethoxy)-6,7-dihydro-pyrimido[6,1-a]isoquinolin-4-one]
101 to 500	CCOCCOc1ccc2c(c1)CCn1c-2cc(OC[C@@H]2COCCO2)nc1=O [Compound 130, 2-((S)-1-[1,4]dioxan-2-ylmethoxy)-9-(2-ethoxy-ethoxy)-6,7-dihydro-pyrimido[6,1-a]isoquinolin-4-one]
0.01 to 100	O=c1nc(OCC2COCCO2)cc2n1CCc1cc(C#CC3CCCCC3)ccc1-2 (centres unmarked) [Compound 82, 9-cyclohexylethynyl-2-([1,4]dioxan-2-ylmethoxy)-6,7-dihydro-pyrimido[6,1-a]isoquinolin-4-one]
0.01 to 100	COCCCc1ccc2c(c1)CCn1c-2cc(OC[C@@H]2COCCO2)nc1=O [Compound 165, 2-((S)-1-[1,4]dioxan-2-ylmethoxy)-9-(3-methoxy-propyl)-6,7-dihydro-pyrimido[6,1-a]isoquinolin-4-one]
0.01 to 100	O=c1nc(OC[C@@H]2COCCO2)cc2n1CCc1cc(OCC3COC3)ccc1-2 [Compound 163, 2-((S)-1-[1,4]dioxan-2-ylmethoxy)-9-(oxetan-3-ylmethoxy)-6,7-dihydro-pyrimido[6,1-a]isoquinolin-4-one]
0.01 to 100	O=c1nc(OC[C@@H]2COCCO2)cc2n1CCc1cc(OCC3CC3)ccc1-2 [Compound 131, 9-cyclopropylmethoxy-2-((S)-1-[1,4]dioxan-2-ylmethoxy)-6,7-dihydro-pyrimido[6,1-a]isoquinolin-4-one]
0.01 to 100	CCOc1ccc(-c2ccc3c(c2)CCn2c-3cc(OCC3COCCO3)nc2=O)cn1 (centres unmarked) [Compound 61, 2-([1,4]dioxan-2-ylmethoxy)-9-(6-ethoxy-pyridin-3-yl)-6,7-dihydro-pyrimido[6,1-a]isoquinolin-4-one]
0.01 to 100	CC(C)(C)COCc1ccc2c(c1)CCn1c-2cc(OC[C@@H]2COCCO2)nc1=O [Compound 136, 9-(2,2-dimethyl-propoxymethyl)-2-((S)-1-[1,4]dioxan-2-ylmethoxy)-6,7-dihydro-pyrimido[6,1-a]isoquinolin-4-one]
0.01 to 100	O=c1nc(OC[C@@H]2COCCO2)cc2n1CCc1cc(COCC3CC3)ccc1-2 [Compound 138, 9-cyclopropylmethoxymethyl-2-((S)-1-[1,4]dioxan-2-ylmethoxy)-6,7-dihydro-pyrimido[6,1-a]isoquinolin-4-one]

From patent publication US10047083B2, “Dihydropyrimidinoisoquinolinones and pharmaceutical compositions thereof for the treatment of inflammatory disorders” (GALAPAGOS NV, priority 2011, dated 2018)
